Test results reported in patent US12077503B2, “Substituted cyclic amides and their use as herbicides” (FMC CORPORATION, priority 2015, dated 2024).

How the values were obtained:
Format in all cases: in vivo
[1] = system: barnyardgrass (Echinochloa crus-galli); experiment: Test B flooded paddy test; settings: Echinochloa crus-galli, 360 h, Flood, 250 g ai/ha; visually evaluated after 13 to 15 d; read-out: Plant response rating, Barnyardgrass (0 to 100 scale where 0 is no effect and 100 is complete control)
Method in brief: (§1)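 Response scored visually against untreated controls, 0 = no effect and 100 = complete control, 13–15 d after treatment in the greenhouse. Compounds added to paddy water held 3 cm above soil surface. Treatment given at 2-leaf stage.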

[2] = system: ducksalad (Heteranthera limosa); experiment: Test B flooded paddy test; settings: Heteranthera limosa, 360 h, Flood, 250 g ai/ha; visually evaluated after 13 to 15 d; read-out: Plant response rating, Ducksalad (0 to 100 scale where 0 is no effect and 100 is complete control)
Method in brief: as §1

[3] = system: sedge, umbrella (small-flower umbrella sedge, Cyperus difformis); experiment: Test B flooded paddy test; settings: Cyperus difformis, 360 h, Flood, 250 g ai/ha; visually evaluated after 13 to 15 d; read-out: Plant response rating, Sedge, Umbrella (0 to 100 scale where 0 is no effect and 100 is complete control)
Method in brief: as §1

rice (Oryra sativa) = experiment: Test B flooded paddy test; settings: Oryza sativa, 360 h, Flood, 250 g ai/ha; visually evaluated after 13 to 15 d; read-out: Plant response rating, Rice (0 to 100 scale where 0 is no effect and 100 is complete control)
Method in brief: as §1

[4] = system: giant foxtail (Setaria faberii); experiment: Test A preemergence; settings: Setaria faberi, pre-emergence, 240 h, Preemergence
Method in brief: (§2)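 Each rating is a visual injury score from 0 to 100 given about 10 d after treatment, judged against untreated controls kept alongside in the greenhouse. In loam soil–sand blend, seeds got a preemergence directed soil spray, while postemergence plants were 2 to 10 cm tall at spraying.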

[5] = system: barnyardgrass (Echinochloa crus-galli); experiment: Test A preemergence; settings: Echinochloa crus-galli, pre-emergence, 240 h, Preemergence
Method in brief: as §2

[6] = system: pigweed (Amaranthus retroflexus); experiment: Test A preemergence; settings: Amaranthus retroflexus, pre-emergence, 240 h, Preemergence
[7] = system: ragweed (common ragweed, Ambrosia elatior); experiment: Test A preemergence; settings: Ambrosia artemisiifolia, pre-emergence, 240 h, Preemergence
Method in brief: as §2

[8] = system: ryegrass, Italian (Italian ryegrass, Lolium multiflorum); experiment: Test A preemergence; settings: Lolium multiflorum, pre-emergence, 240 h, Preemergence
Method in brief: as §2

Kochia (Kochia scoparia) [9] = experiment: Test A preemergence; settings: Bassia scoparia, pre-emergence, 240 h, Preemergence
Method in brief: as §2

[10] = system: giant foxtail (Setaria faberii); experiment: Test A postemergence; settings: Setaria faberi, post-emergence, 240 h, Postemergence, read-out: Foxtail, Giant plant response rating (0 to 100 scale)
Method in brief: as §2

[11] = system: barnyardgrass (Echinochloa crus-galli); experiment: Test A postemergence; settings: Echinochloa crus-galli, post-emergence, 240 h, Postemergence
Method in brief: as §2

corn (Zea mays) = experiment: Test A postemergence; settings: Zea mays, post-emergence, 240 h, Postemergence, read-out: Corn plant response rating (0 to 100 scale)
Method in brief: as §2

[12] = system: pigweed (Amaranthus retroflexus); experiment: Test A postemergence; settings: Amaranthus retroflexus, post-emergence, 240 h, Postemergence, read-out: Pigweed plant response rating (0 to 100 scale)
Method in brief: as §2

[13] = system: ragweed (common ragweed, Ambrosia elatior); experiment: Test A postemergence; settings: Ambrosia artemisiifolia, post-emergence, 240 h, Postemergence, read-out: Ragweed plant response rating (0 to 100 scale)
Method in brief: as §2

[14] = system: wheat (Triticum aestivum); experiment: Test A postemergence; settings: Triticum aestivum, post-emergence, 240 h, Postemergence, read-out: Wheat plant response rating (0 to 100 scale)
Method in brief: as §2

[15] = system: blackgrass (Alopecurus myosuroides); experiment: Test A postemergence; settings: Alopecurus myosuroides, post-emergence, 240 h, Postemergence, read-out: Blackgrass plant response rating (0 to 100 scale)
Method in brief: as §2

[16] = system: ryegrass, Italian (Italian ryegrass, Lolium multiflorum); experiment: Test A postemergence; settings: Lolium multiflorum, post-emergence, 240 h, Postemergence, read-out: Ryegrass, Italian plant response rating (0 to 100 scale)
Method in brief: as §2

Kochia (Kochia scoparia) [17] = experiment: Test A postemergence; settings: Bassia scoparia, post-emergence, 240 h, Postemergence, read-out: Kochia plant response rating (0 to 100 scale)
Method in brief: as §2

[18] = 125 g ai/ha, visual rating about 10 d after treatment
[19] = 31 g ai/ha, 0 is no effect, 100 is complete control

Cc1ccncc1NC(=O)[C@H]1C(=O)N(C)C[C@@H]1c1ccc2c(c1)OC(F)(F)O2 [Compound 1351]
0%: pest or weed control at 250 g/ha [1] | pest or weed control at 250 g/ha [3] | pest or weed control at 250 g/ha (rice (Oryra sativa)) | pest or weed control at 31 g/ha ([4]; 31 g ai/ha, 0 to 100 scale where 0 is no effect and 100 is complete control, read-out: Foxtail, Giant plant response rating) | pest or weed control at 125 g/ha ([4]; 125 g ai/ha, 0 to 100 scale (0 no effect, 100 complete control), read-out: Plant response rating, Foxtail, Giant) | pest or weed control at 31 g/ha ([5]; 31 g ai/ha, 0 to 100 scale where 0 is no effect and 100 is complete control, read-out: Barnyardgrass plant response rating) | pest or weed control at 125 g/ha ([5]; 125 g ai/ha, 0 to 100 scale (0 no effect, 100 complete control), read-out: Plant response rating, Barnyardgrass) | pest or weed control at 31 g/ha ([6]; 31 g ai/ha, 0 to 100 scale where 0 is no effect and 100 is complete control, read-out: Pigweed plant response rating) | pest or weed control at 125 g/ha ([6]; 125 g ai/ha, 0 to 100 scale (0 no effect, 100 complete control), read-out: Plant response rating, Pigweed) | pest or weed control at 31 g/ha ([7]; 31 g ai/ha, 0 to 100 scale where 0 is no effect and 100 is complete control, read-out: Ragweed plant response rating) | pest or weed control at 125 g/ha ([7]; 125 g ai/ha, 0 to 100 scale (0 no effect, 100 complete control), read-out: Plant response rating, Ragweed) | pest or weed control at 31 g/ha ([8]; 31 g ai/ha, 0 to 100 scale where 0 is no effect and 100 is complete control, read-out: Ryegrass, Italian plant response rating) | pest or weed control at 125 g/ha ([8]; 125 g ai/ha, 0 to 100 scale (0 no effect, 100 complete control), read-out: Plant response rating, Ryegrass, Italian) | pest or weed control at 31 g/ha (Kochia (Kochia scoparia) [9]; 31 g ai/ha, 0 to 100 scale where 0 is no effect and 100 is complete control, read-out: Kochia plant response rating) | pest or weed control at 125 g/ha (Kochia (Kochia scoparia) [9]; 125 g ai/ha, 0 to 100 scale (0 no effect, 100 complete control), read-out: Plant response rating, Kochia) | pest or weed control at 125 g/ha [10, 18] | pest or weed control at 31 g/ha [10, 19] | pest or weed control at 125 g/ha ([11]; 125 g ai/ha, visual rating about 10 d after treatment, read-out: Barnyardgrass plant response rating (0 to 100 scale, 0 no effect, 100 complete control)) | pest or weed control at 31 g/ha ([11]; 31 g ai/ha, 0 is no effect, 100 is complete control, read-out: Barnyardgrass plant response rating (0 to 100 scale)) | plant injury at 125 g/ha (corn (Zea mays); [18]) | plant injury at 31 g/ha (corn (Zea mays); [19]) | pest or weed control at 125 g/ha [12, 18] | pest or weed control at 31 g/ha [12, 19] | pest or weed control at 125 g/ha [13, 18] | pest or weed control at 31 g/ha [13, 19] | plant injury at 125 g/ha [14, 18] | plant injury at 31 g/ha [14, 19] | pest or weed control at 125 g/ha [15, 18] | pest or weed control at 31 g/ha [15, 19] | pest or weed control at 125 g/ha [16, 18] | pest or weed control at 31 g/ha [16, 19] | pest or weed control at 125 g/ha (Kochia (Kochia scoparia) [17]; [18]) | pest or weed control at 31 g/ha (Kochia (Kochia scoparia) [17]; [19])
40%: pest or weed control at 250 g/ha [2]
